Measurements as given in ChEMBL document CHEMBL1147817, “Two novel furan derivatives from Phellinus linteus with anti-complement activity” (Bioorg Med Chem Lett, 2006).

Assay: Inhibition of classical pathway of the complement system
Assay type: functional, Homo sapiens

`CO[C@H]1O[C@@H](C(O)CO)/C(=C/c2ccc(CO)o2)C1=O` (stereo partly drawn) [PHELLINUSFURAN A] and `CO[C@H]1O[C@H](C(O)CO)/C(=C/c2ccc(CO)o2)C1=O` (stereo partly drawn) [PHELLINUSFURAN B] are within 1.5-fold of each other in IC50: 33.6 µM for the first, 33.7 µM for the second.

`O=C(/C=C/c1ccc(O)c(O)c1)O[C@H](Cc1ccc(O)c(O)c1)C(=O)O` [ROSMARINIC ACID] showed an IC50 of 180 µM.
